The values below come from PubChem BioAssay (NCI).

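Briefly, cells in 96-well plates were exposed to five compound concentrations for 48 h, and endpoints were estimated by linear interpolation. At the GI50, growth is halved. TGI is the concentration that stops growth completely.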

Among the test systems are SK-MEL-28 melanoma; M14 melanoma; SW-620 colon; KM12 colon; IGROV1 ovarian; NCI-H23 lung; UACC-257 melanoma; U251 CNS; RXF 393 renal.
Holding throughout (assay): DTP human tumour cell line panel, 48 h

Consider `CC(=O)CC(=O)CCCC(=O)Nc1ccc(Cl)cc1Cl`, for which the TGI with SK-MEL-28 melanoma, in the assay with M14 melanoma, in the assay on SW-620 colon, in the assay with KM12 colon, in the assay with IGROV1 ovarian and in the assay with NCI-H23 lung was above 100 µM in each case. Besides, the TGI with UACC-257 melanoma is above 100 µM.
On to `N#CC12CCC(O)C(CC1)C2=O` (configuration not stated), for which the TGI in the assay on U251 CNS, with RXF 393 renal, in the assay with SK-MEL-28 melanoma, in the assay with M14 melanoma, in the assay on KM12 colon and in the assay on IGROV1 ovarian was above 100 µM in each case. Also, the TGI with NCI-H23 lung and in the assay with UACC-257 melanoma was above 100 µM throughout.
Consider `O=NN(CCCl)C(=O)NCc1ccc[n+]([O-])c1`, for which the TGI in the assay with U251 CNS, with RXF 393 renal, with SK-MEL-28 melanoma, in the assay with M14 melanoma, in the assay with SW-620 colon and in the assay with KM12 colon was above 100 µM in each case. The TGI in the assay on IGROV1 ovarian, in the assay with NCI-H23 lung and in the assay with UACC-257 melanoma was above 100 µM throughout.
As for `CC1(c2ccccc2)CC12C(=O)NC(=O)NC2=O` (configuration not stated), the TGI in the assay with U251 CNS, in the assay on SK-MEL-28 melanoma, in the assay on M14 melanoma, in the assay on SW-620 colon, with KM12 colon and in the assay with IGROV1 ovarian was above 100 µM each time. Moreover, the TGI with NCI-H23 lung and in the assay with UACC-257 melanoma was above 100 µM each time.
Consider `O=C1C2c3[nH]c4ccccc4c3C3CCSCC3C2C(=O)N1c1ccccc1` (configuration not stated), for which the TGI in the assay on U251 CNS, in the assay with RXF 393 renal, with SK-MEL-28 melanoma, in the assay on M14 melanoma, in the assay on SW-620 colon and in the assay on KM12 colon was above 100 µM each time. Moreover, the TGI with IGROV1 ovarian, with NCI-H23 lung and with UACC-257 melanoma was above 100 µM throughout.
Turning to `CCCOP1(=O)C=C(C)C(Cl)=C(C)C1` (configuration not stated), the TGI worked out at 59.3 µM with U251 CNS; 57 µM with RXF 393 renal; 43.5 µM in the assay on SK-MEL-28 melanoma; 32.5 µM with M14 melanoma; 35.5 µM in the assay on SW-620 colon; 43 µM in the assay on KM12 colon. Moreover, the TGI in the assay on IGROV1 ovarian is above 100 µM; with NCI-H23 lung it was 37 µM; in the assay with UACC-257 melanoma, 45.7 µM.
Turning to `N.N.NCCCCN.O=C([O-])CC(=O)[O-].O=C([O-])CC(=O)[O-].[Pt+4].[Pt+4]`, the GI50 in the assay on U251 CNS is 48.5 µM; with RXF 393 renal, above 100 µM; with SK-MEL-28 melanoma it was above 100 µM; in the assay on M14 melanoma, above 100 µM; in the assay with SW-620 colon it was above 100 µM; in the assay with KM12 colon, above 100 µM. Moreover, the GI50 in the assay with IGROV1 ovarian was above 100 µM; in the assay on NCI-H23 lung, 89.1 µM; in the assay with UACC-257 melanoma, above 100 µM. Also, the TGI in the assay with U251 CNS, in the assay with RXF 393 renal, in the assay with SK-MEL-28 melanoma, with M14 melanoma, in the assay on SW-620 colon and in the assay on KM12 colon was above 100 µM throughout. Also, the TGI with IGROV1 ovarian, in the assay with NCI-H23 lung and in the assay on UACC-257 melanoma was above 100 µM each time.
For `COCC1N=C(c2ccc(OC)c(OCc3ccccc3)c2OC)O[C@H]1c1ccccc1` (some centres not stated), the TGI with U251 CNS was 60.6 µM; in the assay with RXF 393 renal, 97.3 µM; with SK-MEL-28 melanoma, 69.8 µM; in the assay on M14 melanoma, 35.2 µM; in the assay with SW-620 colon, above 100 µM; in the assay with KM12 colon, 96.2 µM. The TGI in the assay with IGROV1 ovarian and in the assay with NCI-H23 lung was above 100 µM in each case.
`CC1=C2C(=CC(C)(CO)C2O)C(=O)C(C)(O)C12CC2` (configuration not stated): the TGI stood at 0.0211 µM in the assay on U251 CNS; 0.00569 µM with RXF 393 renal; 0.0138 µM in the assay with SK-MEL-28 melanoma; 0.0104 µM in the assay with M14 melanoma; 0.0585 µM in the assay on SW-620 colon; 0.0219 µM in the assay on KM12 colon. The TGI is 0.106 µM with IGROV1 ovarian, 0.00996 µM in the assay with NCI-H23 lung and 0.00867 µM in the assay with UACC-257 melanoma.
In the case of `N#C[C@]12CC3(CC[C@H]1CC1(C2)OCCO1)OCCO3`, the TGI in the assay on U251 CNS, in the assay on RXF 393 renal, in the assay with SK-MEL-28 melanoma, in the assay with M14 melanoma, in the assay on SW-620 colon and with KM12 colon was above 100 µM throughout. Moreover, the TGI with IGROV1 ovarian and with UACC-257 melanoma was above 100 µM throughout.
Regarding `Nc1ccc(CCN2CCN(c3cccc(C(F)(F)F)c3)CC2)cc1`, the TGI in the assay with U251 CNS, with RXF 393 renal, in the assay with SK-MEL-28 melanoma, with M14 melanoma, with KM12 colon and in the assay with IGROV1 ovarian was above 100 µM each time. Further, the TGI with NCI-H23 lung and in the assay on UACC-257 melanoma was above 100 µM throughout.
For `CCC12CCC(O)C1N(C)CCC2Sc1ccccc1` (configuration not stated), the TGI in the assay on U251 CNS, in the assay with RXF 393 renal, in the assay on SK-MEL-28 melanoma, with M14 melanoma, in the assay on SW-620 colon and with KM12 colon was above 100 µM in each case. Also, the TGI with IGROV1 ovarian, in the assay with NCI-H23 lung and with UACC-257 melanoma was above 100 µM each time.
Take `CN(C)CCCNC(=O)c1cc(NC(=O)c2cc(NC(=O)CCCN3c4ccccc4C=Cc4ccccc43)cn2C)cn1C`: the GI50 is 8.61 µM in the assay with RXF 393 renal; 2.97 µM in the assay on M14 melanoma; 3.96 µM in the assay with SW-620 colon; 2.42 µM with KM12 colon; 3.36 µM with IGROV1 ovarian; 10.6 µM with NCI-H23 lung. In the assay on UACC-257 melanoma, the GI50 was 4.5 µM. Moreover, the TGI in the assay with RXF 393 renal was 85 µM; in the assay on M14 melanoma, above 100 µM; in the assay with SW-620 colon, above 100 µM; in the assay on KM12 colon it was 10.8 µM; in the assay on IGROV1 ovarian, 8.8 µM; in the assay on NCI-H23 lung it was 54.8 µM. In addition, the TGI in the assay with UACC-257 melanoma turned out to be 30.6 µM.
For the compound `C=CC[P@@]1(=O)O[C@H](c2ccccc2)C(C)N1C(C)C` (some centres not stated), the TGI with U251 CNS, with RXF 393 renal, in the assay on SK-MEL-28 melanoma, in the assay with M14 melanoma, in the assay on SW-620 colon and with KM12 colon was above 100 µM throughout. In addition, the concentration for total growth inhibition (TGI) with IGROV1 ovarian and in the assay on NCI-H23 lung was above 100 µM in each case.
